# Measured values reported in patent US5989846A, “Assays to identify inducers of plant defense resistance” (Rutgers, The State University of New Jersey, priority 1995, dated 1999).
# Columns and labels:
# [1] = tested on: salicylic acid binding protein; assay: Competitive [14C] salicylic acid binding assay (spin-column); design: species or system tobacco; conditions: [14C] salicylic acid 20 μM
# Outline: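 Plant-fractionated binding protein incubated 2 hr at 4 °C with 5 μM-20 μM [14C]salicylic acid, with analogues added to the mixture as competitors. Bound ligand separated from free by spin-column gel exclusion (6 kDa limit) and counted; binding activity compared with analogue-free controls.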
# horseradish peroxidase = biological target: T1, horseradish peroxidase (Armoracia rusticana, UniProt P00433); assay: Horseradish peroxidase activity; format: biochemical
# T1 construct: purchased Sigma
# T1 sequence (P00433 31-353): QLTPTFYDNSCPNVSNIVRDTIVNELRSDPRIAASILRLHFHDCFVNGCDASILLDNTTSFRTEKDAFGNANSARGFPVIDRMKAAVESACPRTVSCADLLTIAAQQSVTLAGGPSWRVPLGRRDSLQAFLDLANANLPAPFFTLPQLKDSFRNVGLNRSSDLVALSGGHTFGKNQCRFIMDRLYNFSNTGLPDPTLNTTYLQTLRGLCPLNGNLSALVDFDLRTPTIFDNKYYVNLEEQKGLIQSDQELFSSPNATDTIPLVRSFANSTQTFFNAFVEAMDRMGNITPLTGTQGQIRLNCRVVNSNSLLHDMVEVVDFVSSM
# Procedure: Horseradish peroxidase (1 mg; obtained from Sigma) was dissolved in 1.5 ml 200 mM potassium phosphate, pH 6.2, containing 150 mM NaCl. Following a 15 minute incubation at room temperature, the enzyme solution was centrifuged (10,000 g, 10 minutes). After buffer exchange (PD-10, equilibrated with 25 mM potassium phosphate, pH 6.2), the protein concentration was adjusted to 0.5 mg/ml.
# (§1) Guaiacol peroxidase activity was determined by the method of Chance and Maehly (Methods Enzymol. 2: 764 (1955)) using guaiacol as the substrate.
# (§2) The formation of tetraguaiacol was monitored at 470 nm. The reaction mixture contained 0.25% guaiacol and 100 mM hydrogen peroxide in 20 mM potassium phosphate, pH 6.2. The amount of protein per 1 ml assay was […]. The reaction was measured for five minutes. The assay for horseradish peroxidase was identical, except that only 0.2-0.5 μg protein was used.
# plant processes = tested on: plant processes; design: key: +: induces or enhances; -: reduces or inhibits; conditions: addition of salicylic acid to plants; cited from earlier work
# SABP = tested on: SABP; design: concentration or dose not given beside the values; conditions: Table 6; previously published data (Chen et al. 1993); cited from earlier work
# guaiacol peroxidases = assay: Guaiacol peroxidase activity in tobacco leaf extracts; format: biochemical, Nicotiana tabacum cv. Xanthi nc
# Procedure: Inhibition of peroxidase by SA and INA was determined by measuring the enzyme activities in extracts prepared from tobacco leaves in the absence or presence of 100 μM or 1000 μM SA or INA. Two grams of leaves from 6-8 week old tobacco plants (Nicotiana tabacum cv. Xanthi nc) grown at 22° C. in a 14 hr light cycle were homogenized under liquid nitrogen using a pestle and mortar.
# Total guaiacol peroxidase activity was extracted with 100 mM potassium phosphate, pH 6.2, containing 1% (weight/volume) polyvinylpyrrolidone. In order to also extract the ionically bound cell wall isozymes, the extraction buffer was supplemented with 600 mM KCl. Extraction and centrifugation steps were as described for ascorbate peroxidase. After removal of cell debris and ammonium sulfate precipitation (85%), the extract was desalted against 50 mM potassium phosphate, pH 6, containing 25% glycerol. The extract could be stored at -20° C. without significant loss of peroxidase activity.
# as §1, §2
# [2] = tested on: catalases from non-plant sources; assay: Inhibition of non-plant catalases by salicylic acid; format: biochemical; conditions: catalases from fungi and animals
# Text: Genes or cDNA copies for several of these catalases have been cloned (e.g. Scandalios, J. G. et al., Proc. Natl. Acad. Sci. USA, 77 (1980) 5360-5364; Bell, G. I. et al., Nucleic Acids Res., 14, (1986), 5561-5562; Hartig, A. et al., Eur. J. Biochem, 160, (1986) 487-490). A gene encoding one of these catalases can be introduced and expressed in a plant in the sense orientation using appropriate regulatory sequences (e.g. CaMV 35S promoter and nopaline synthase cleavage and polyadenylation signal) and vectors (e.g. PCGN 1540 or pCIB3064) as described in Example 25.
smiles,measurement,setting,value
"O=C(O)c1ccccc1O [salicylic acid, 2-hydroxybenzoic acid]",Inhibition (%) 2×,[1]; 40 μM (2×) unlabeled competitor,50%
same,Inhibition (%) 10×,[1]; 200 μM (10×) unlabeled competitor,91%
same,Activity,"horseradish peroxidase; HRP, 100 μM compound",251 ± 11 μmols of oxidized substrate mi
same,inhibition at 100 µM,"horseradish peroxidase; HRP, 100 μM compound",-4%
same,Activity,"horseradish peroxidase; HRP, 1,000 μM compound",237 ± 21 μmols of oxidized substrate mi
same,inhibition at 1000 µM,"horseradish peroxidase; HRP, 1,000 μM compound",1%
same,Effect on Adventitious root initiation,plant processes,+
same,Effect on Alternative pathway,plant processes,+
same,Effect on Disease resistance,plant processes,+
same,Effect on Ethylene biosynthesis,plant processes,-
same,Effect on Flowering,plant processes,+
same,Effect on Fruit yield,plant processes,+
same,Effect on Gene regulation,plant processes,+
same,Effect on Glycolysis,plant processes,+
same,Effect on Growth inhibition,plant processes,+
same,Effect on Krebs cycle,plant processes,+
same,Effect on Leaf abscission,plant processes,-
same,Effect on Photonastic leaflet movement,plant processes,+
same,Effect on Potassium ion absorption,plant processes,-
same,Effect on Scotonastic leaflet movement,plant processes,-
same,Effect on Seed germination,plant processes,- and +
same,Effect on Somatic embryogenesis,plant processes,-
same,Effect on Stomatal closure,plant processes,-
same,Effect on Thermogenesis,plant processes,+
same,Effect on Transpiration,plant processes,-
same,Effect on Wound response,plant processes,-
same,Inhibition (%) [14C]SA binding,SABP,89%
same,Activity,"guaiacol peroxidases; POX, 100 μM compound",2.7 ± 0.3 μmols of oxidized substrate mi
same,Inhibition,"guaiacol peroxidases; POX, 100 μM compound",3%
same,Activity,"guaiacol peroxidases; POX, 1,000 μM compound",2.7 ± 0.4 μmols of oxidized substrate mi
same,Inhibition,"guaiacol peroxidases; POX, 1,000 μM compound",3%
same,Sensitivity of non-plant catalases to inhibition,[2],insensitive to inhibition
